Among the data in ChEMBL document CHEMBL1153697, “Bioactive constituents of the stem bark of Mitrephora glabra” (J Nat Prod, 2009) are IC50, MIC and Activity values, retold here.

The term IC50 denotes the point on the concentration scale where inhibition reaches its midpoint. The low end stands for greater potency in that assay, the high end for weaker potency in that assay. As usually defined, the MIC is the smallest concentration in the dilution series that meets the test's criterion for growth inhibition. The low end stands for inhibition by little substance, the high end for a need for much substance.

One assay deals with MCF7. The experiment in a line: Cytotoxicity against human MCF7 cells after 3 days by sulforhodamine B assay. It counts as functional, cell-based. Particulars: for IC50: MCF7, 72 h. (In general: In SRB staining, fixed cells bind dye roughly in proportion to their protein.)
A further assay deals with NCI-H460. Put plainly: Cytotoxicity against human NCI-H460 cells after 3 days by sulforhodamine B assay. Format: functional, cell-based. Particulars: for IC50: NCI-H460, 72 h.
In a further assay the test system is Saccharomyces cerevisiae. The experiment in a line: Antifungal activity against Saccharomyces cerevisiae after 3 days by broth microdilution method. Conditions: 72 h. Format: functional. Background: Broth dilution looks for growth in wells or tubes with falling amounts of substance.
In a further assay the test system is Micrococcus luteus. Put plainly: Antibacterial activity against Micrococcus luteus after 3 days by broth microdilution method. It counts as functional. Particulars: 72 h.
For a further assay, the system named is KB. The experiment in a line: Cytotoxicity against human KB cells after 3 days by sulforhodamine B assay. Format: functional, cell-based. Particulars: for IC50: 72 h.
Assay [1] concerns Mycolicibacterium smegmatis. Put plainly: Antibacterial activity against Mycobacterium smegmatis after 3 days by broth microdilution method. It counts as functional. Conditions: 72 h.
The test system of another assay is Aspergillus niger. Put plainly: Antifungal activity against Aspergillus niger after 3 days by broth microdilution method. Format: functional. Particulars: 72 h.
In the next assay the test system is SF-268. Put plainly: Cytotoxicity against human SF268 cells after 3 days by sulforhodamine B assay. Conditions: for IC50: SF-268, 72 h. Format: functional, cell-based.

Values after ≈ are worked out from the molar mass of the structure shown. Active and inactive are the calls of the source.

On to `O=C1c2ccccc2-c2c3c(cc4ccnc1c24)OCO3` [LIRIODENINE], for which the IC50 in the assay with MCF7, in the assay with NCI-H460, in the assay on KB and in the assay with SF-268 was 5 µM throughout. Further, the MIC in the assay with Saccharomyces cerevisiae came out at 12 µg/mL (≈ 43.6 µM); in the assay on Micrococcus luteus, 6.3 µg/mL (≈ 22.9 µM); in assay [1] it was 12 µg/mL (≈ 43.6 µM); in the assay with Aspergillus niger, 25 µg/mL (≈ 90.8 µM).
Turning to `C[C@@H]1[C@H](O)[C@@H](C)/C=C/C=C/C=C/C=C/C=C/C=C/C=C/[C@H](O[C@@H]2O[C@H](C)[C@@H](O)[C@H](N)[C@@H]2O)C[C@@H]2O[C@](O)(C[C@@H](O)C[C@@H](O)[C@H](O)CC[C@@H](O)C[C@@H](O)CC(=O)O[C@H]1C)C[C@H](O)[C@H]2C(=O)O` [AMPHOTERICIN B], the MIC against Saccharomyces cerevisiae and against Aspergillus niger was 25 µg/mL (≈ 27.1 µM) each time.
Take `CCCCC#CC#CC#CCCCCCCCC(=O)O`: the half-maximal inhibitory concentration (IC50) with MCF7, in the assay on NCI-H460, with KB and in the assay on SF-268 was 10 µM throughout. For the same molecule, the MIC was found to be 25 µg/mL (≈ 91.8 µM) against Saccharomyces cerevisiae, 25 µg/mL (≈ 91.8 µM) against Micrococcus luteus, 25 µg/mL (≈ 91.8 µM) in assay [1] and 50 µg/mL (≈ 184 µM) against Aspergillus niger.
Turning to `C=C1C[C@]2(C(=O)O)C[C@H]1CC[C@H]2[C@]1(C)CCC[C@@](C)(C(=O)OC)[C@H]1C(=O)O`, the IC50 with MCF7, in the assay on NCI-H460, in the assay on KB and in the assay on SF-268 was more than 10 µM each time. In addition, the MIC is 150 µg/mL (≈ 396 µM) in the assay on Saccharomyces cerevisiae, 150 µg/mL (≈ 396 µM) in the assay with Micrococcus luteus, 75 µg/mL (≈ 198 µM) in assay [1] and 150 µg/mL (≈ 396 µM) against Aspergillus niger.
Regarding `C=CCCC#CC#CC#CCCCCCCCC(=O)OC` [METHYLOROPHEATE], the outcome with MCF7, in the assay with NCI-H460, with KB and in the assay on SF-268 was inactive. The MIC is 25 µg/mL (≈ 87.9 µM) in the assay on Saccharomyces cerevisiae, 50 µg/mL (≈ 176 µM) in the assay on Micrococcus luteus, 12 µg/mL (≈ 42.2 µM) in assay [1] and 25 µg/mL (≈ 87.9 µM) against Aspergillus niger.
In turn, `CC1(C)S[C@@H]2[C@H](NC(=O)[C@H](N)c3ccccc3)C(=O)N2[C@H]1C(=O)O` [AMPICILLIN] came in with an MIC in the assay with Micrococcus luteus of 0.1 µg/mL (≈ 0.286 µM).
Consider `C=CCCC#CC#CC#CCCCCCCCC(=O)O` [OROPHEIC ACID], for which the IC50 in the assay on MCF7, in the assay on NCI-H460, with KB and in the assay on SF-268 was 10 µM throughout. Besides, the minimum inhibitory concentration (MIC) in the assay with Saccharomyces cerevisiae turned out to be 47 µg/mL (≈ 174 µM); with Micrococcus luteus it was 94 µg/mL (≈ 348 µM); in assay [1], 94 µg/mL (≈ 348 µM); in the assay on Aspergillus niger it was 188 µg/mL (≈ 695 µM).
The molecule `NC[C@H]1O[C@H](O[C@H]2[C@H](O)[C@@H](O[C@H]3O[C@H](CO)[C@@H](O)[C@H](N)[C@H]3O)[C@H](N)C[C@@H]2N)[C@H](O)[C@@H](O)[C@@H]1O` [KANAMYCIN] came in with an MIC in assay [1] of 0.2 µg/mL (≈ 0.413 µM).
Take `C=CCCC#CC#CC#CCCCCCC[C@@H]1C[C@@H](CO)OC1=O` [OROPHEOLIDE]: the IC50 in the assay on MCF7, with NCI-H460, with KB and with SF-268 was 10 µM in each case. The MIC with Saccharomyces cerevisiae is 63 µg/mL (≈ 193 µM); against Micrococcus luteus, 125 µg/mL (≈ 383 µM); in assay [1] it was 31 µg/mL (≈ 95 µM); with Aspergillus niger, 250 µg/mL (≈ 766 µM).
On to `C=C1C[C@]23C[C@H]1CC[C@H]2[C@]1(C)CCC[C@@]2(C)C(=O)O[C@@H](C3=O)[C@@H]12` [MITREKAURENONE], for which the IC50 in the assay on MCF7, with NCI-H460, with KB and with SF-268 was more than 10 µM throughout. Moreover, the MIC with Saccharomyces cerevisiae is 38 µg/mL (≈ 121 µM); against Micrococcus luteus, 150 µg/mL (≈ 477 µM); in assay [1], 38 µg/mL (≈ 121 µM); against Aspergillus niger, 38 µg/mL (≈ 121 µM).
For the molecule `C=CCCC#CC#CC#C/C=C/CCCC[C@@H]1C[C@@H](CO)OC1=O`, the IC50 with MCF7, with NCI-H460, in the assay on KB and in the assay on SF-268 was 10 µM each time. Besides, the MIC came out at 12 µg/mL (≈ 37 µM) in the assay on Saccharomyces cerevisiae, 50 µg/mL (≈ 154 µM) against Micrococcus luteus, 12 µg/mL (≈ 37 µM) in assay [1] and 12 µg/mL (≈ 37 µM) in the assay with Aspergillus niger.
Take `C=C1C[C@@]23CC[C@H]4[C@@](C)(CCC[C@]4(C)C(=O)O)[C@@H]2CC[C@@H]1C3`: the IC50 with MCF7, in the assay on NCI-H460, in the assay on KB and in the assay with SF-268 was more than 10 µM throughout. Also, the MIC was 50 µg/mL (≈ 165 µM) against Saccharomyces cerevisiae, 50 µg/mL (≈ 165 µM) in the assay on Micrococcus luteus, 50 µg/mL (≈ 165 µM) in assay [1] and 100 µg/mL (≈ 331 µM) against Aspergillus niger.
